Experimental findings from patent publication US7786141B2 (Vertex Pharmaceuticals Incorporated, priority 2004, dated 2010) are described below.

One test deals with T1, M1 muscarinic receptor (Homo sapiens, UniProt P11229).
T1 construct: expressed in transfected cells; host or cells: CHO (M1-CHO)
T1 sequence (P11229 1-460): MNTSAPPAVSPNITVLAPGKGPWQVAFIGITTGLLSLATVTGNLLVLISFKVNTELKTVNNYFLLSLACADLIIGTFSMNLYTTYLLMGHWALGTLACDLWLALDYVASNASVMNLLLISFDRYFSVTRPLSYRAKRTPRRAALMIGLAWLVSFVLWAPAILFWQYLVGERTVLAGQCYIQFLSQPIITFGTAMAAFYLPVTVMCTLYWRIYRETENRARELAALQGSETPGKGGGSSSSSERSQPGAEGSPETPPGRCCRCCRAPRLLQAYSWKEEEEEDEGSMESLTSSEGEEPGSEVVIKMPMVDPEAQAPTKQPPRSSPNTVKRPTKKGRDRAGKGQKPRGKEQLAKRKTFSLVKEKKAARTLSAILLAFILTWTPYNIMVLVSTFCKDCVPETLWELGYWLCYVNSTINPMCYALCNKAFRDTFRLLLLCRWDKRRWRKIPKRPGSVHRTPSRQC
As to the kind of experiment: Functional mobilization of intracellular calcium (FLIPR) in M1-CHO cells. The conditions noted are these: Table 4; for Emax: 100% efficacy is the maximum response obtained with the Carbachol control; for M1 Activity: M1 receptor, calcium mobilization (FLIPR). It counts as cell-based. The essentials: (§1)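 Steps: seed M1- or M4-CHO cells 18-24 hrs ahead; load calcium dye with 1 mM probenecid; add test compound (0.5% DMSO final), either alone for agonism or 15 min before EC80 carbachol for inhibition; record FLIPR fluorescence for 60 sec.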
In general terms: A change in cytosolic calcium serves as a functional read-out for many receptors and channels.

The next test addresses T2, M4 muscarinic receptor (Homo sapiens, UniProt P08173).
T2 construct: expressed in transfected cells; host or cells: CHO (M4-CHO)
T2 sequence (P08173 1-479): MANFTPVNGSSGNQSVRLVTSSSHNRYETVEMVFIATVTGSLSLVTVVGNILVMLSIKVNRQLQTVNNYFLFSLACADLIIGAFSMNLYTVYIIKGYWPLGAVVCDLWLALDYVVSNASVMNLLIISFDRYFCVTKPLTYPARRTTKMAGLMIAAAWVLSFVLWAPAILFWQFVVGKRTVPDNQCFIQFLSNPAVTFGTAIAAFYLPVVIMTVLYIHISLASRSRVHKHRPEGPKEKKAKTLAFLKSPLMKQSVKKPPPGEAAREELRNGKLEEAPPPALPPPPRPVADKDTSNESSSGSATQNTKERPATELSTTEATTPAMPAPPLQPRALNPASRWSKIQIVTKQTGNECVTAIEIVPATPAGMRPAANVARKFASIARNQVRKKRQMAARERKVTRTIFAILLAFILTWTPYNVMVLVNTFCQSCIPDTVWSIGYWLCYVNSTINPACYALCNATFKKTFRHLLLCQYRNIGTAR
As to the kind of experiment: Functional mobilization of intracellular calcium (FLIPR) in M4-CHO cells. It counts as cell-based. The conditions noted are these: Table 4; for Emax: 100% efficacy is the maximum response obtained with the Carbachol control; for M4 Activity: M4 receptor, calcium mobilization (FLIPR). The essentials:
as §1

For `C#CCOC(=O)N1CCC(N2CCC3(CC2)CN(C(C)=O)c2ccccc23)CC1` [compound 947], on M1 muscarinic receptor, the Emax (commonly the maximal effect, on the per cent scale that the assay sets) was above 100% and the “M1 Activity” value is on record as “xxx (activity was measured to be less than 2.0 μM)”. At M4 muscarinic receptor, the Emax is 25 to 100% and the “M4 Activity” value is recorded as “xxx (activity was measured to be less than 2.0 μM)”.
Turning to `CCOC(=O)N1CCC(CN2CCC3(CC2)CN(C(C)=O)c2ccc(S(C)(=O)=O)cc23)CC1` [compound 948], on M1 muscarinic receptor, the Emax was below 25% and the “M1 Activity” value is recorded as “x (activity was measured to be greater than 5.0 μM)”. Also, on M4 muscarinic receptor, the Emax is below 25% and the “M4 Activity” value is recorded as “x (activity was measured to be greater than 5.0 μM)”.
Turning to `CCOC(=O)N1C2CCC1CC(N1CCC3(CC1)CC(=O)c1cc(C)ccc13)C2` (stereo not drawn) [compound 949], on M1 muscarinic receptor, the Emax lay within 25 to 100% and the “M1 Activity” value was “xxx (activity was measured to be less than 2.0 μM)”. On M4 muscarinic receptor, the Emax lay in the range of 25 to 100% and the “M4 Activity” value is on record as “xxx (activity was measured to be less than 2.0 μM)”.
Regarding `CCOC(=O)N1CCC(N2CCC3(CC2)CN(C(C)=O)c2ccc(-c4ccc(F)cc4)cc23)CC1` [compound 950], on M1 muscarinic receptor, the Emax was in the range of 25 to 100%; the “M1 Activity” value is “xx (activity was measured to be between 2.0 μM and 5.0 μM)”. At M4 muscarinic receptor, the Emax was in the range of 25 to 100%; the “M4 Activity” value is “xx (activity was measured to be between 2.0 μM and 5.0 μM)”.
For the compound `CCOC(=O)N1CCC(N2CCC3(CC2)CN(C2CCC(=O)CC2)c2ccc(F)cc23)CC1` [compound 951], at M1 muscarinic receptor, the Emax fell in the range of 25 to 100% and the “M1 Activity” value is “xxx (activity was measured to be less than 2.0 μM)”. For the same compound, on M4 muscarinic receptor, the Emax lay in the range of 25 to 100% and the “M4 Activity” value is listed as “xxx (activity was measured to be less than 2.0 μM)”.
On to `CCOC(=O)N1CCC(N2CCC3(CC2)CNc2ccc(F)cc23)CC1` [compound 952], for which, at M1 muscarinic receptor, the Emax is 25 to 100% and the “M1 Activity” value is recorded as “xxx (activity was measured to be less than 2.0 μM)”. Besides, on M4 muscarinic receptor, the Emax was in the range of 25 to 100% and the “M4 Activity” value is reported as “xxx (activity was measured to be less than 2.0 μM)”.
On to `CC(=O)N1CC2(CCN(C3CCN(c4cnc(C)c(C)n4)CC3)CC2)c2ccccc21` [compound 953], for which, at M1 muscarinic receptor, the Emax is 25 to 100%; the “M1 Activity” value is “xx (activity was measured to be between 2.0 μM and 5.0 μM)”. Besides, on M4 muscarinic receptor, the Emax lay in the range of 25 to 100% and the “M4 Activity” value is given as “xxx (activity was measured to be less than 2.0 μM)”.
On to `COCCOC(=O)N1CCCC(N2CCC3(CC2)CN(C(=O)N(C)C)c2ccc(F)cc23)CC1` (stereo not drawn) [compound 954], for which, at M1 muscarinic receptor, the Emax was in the range of 25 to 100% and the “M1 Activity” value is “xxx (activity was measured to be less than 2.0 μM)”. Further, on M4 muscarinic receptor, the Emax fell in the range of 25 to 100% and the “M4 Activity” value is given as “xxx (activity was measured to be less than 2.0 μM)”.
`O=C(N[C@H]1CC2(CCN(CC3CCCCC3)CC2)c2ccccc21)C1CC1` [compound 955]: on M1 muscarinic receptor, the Emax lay within 25 to 100% and the “M1 Activity” value is on record as “xxx (activity was measured to be less than 2.0 μM)”. Moreover, at M4 muscarinic receptor, the Emax lay in the range of 25 to 100% and the “M4 Activity” value is recorded as “xxx (activity was measured to be less than 2.0 μM)”.
On to `CCOC(=O)N1CCC(N2CCC3(CC2)CN(C(C)=O)c2c(-c4ccsc4)cccc23)CC1` [compound 956], for which, on M1 muscarinic receptor, the Emax is 25 to 100% and the “M1 Activity” value is on record as “x (activity was measured to be greater than 5.0 μM)”. Besides, on M4 muscarinic receptor, the Emax was below 25% and the “M4 Activity” value is reported as “x (activity was measured to be greater than 5.0 μM)”.
Consider `CN(C)C(=O)N1CC2(CCN(C3CCN(c4nccs4)CC3)CC2)c2cc(F)ccc21` [compound 957], for which, on M1 muscarinic receptor, the Emax is 25 to 100% and the “M1 Activity” value is reported as “xxx (activity was measured to be less than 2.0 μM)”. Also, on M4 muscarinic receptor, the Emax was in the range of 25 to 100% and the “M4 Activity” value is recorded as “xxx (activity was measured to be less than 2.0 μM)”.
As to `COCCN1CC2(CCN(C3CCCCCC3)CC2)c2cc(F)ccc21` [compound 958], at M1 muscarinic receptor, the Emax is 25 to 100% and the “M1 Activity” value is “xxx (activity was measured to be less than 2.0 μM)”. Further, on M4 muscarinic receptor, the Emax is 25 to 100% and the “M4 Activity” value is reported as “xxx (activity was measured to be less than 2.0 μM)”.
Turning to `CCOC(=O)N1CCC(N2CCC3(CC2)CN(C(=O)N2CCCC2)c2ccccc23)CC1` [compound 959], on M1 muscarinic receptor, the Emax lay in the range of 25 to 100%; the “M1 Activity” value is “xx (activity was measured to be between 2.0 μM and 5.0 μM)”. Also, at M4 muscarinic receptor, the Emax fell in the range of 25 to 100% and the “M4 Activity” value was “xxx (activity was measured to be less than 2.0 μM)”.
For `CC(C)N(C(=O)N[C@H]1CC2(CCN(C3CC4CC[C@@H]3C4)CC2)c2ccccc21)C(C)C` (stereo partly drawn) [compound 960], at M1 muscarinic receptor, the Emax was below 25% and the “M1 Activity” value is given as “x (activity was measured to be greater than 5.0 μM)”. For the same compound, at M4 muscarinic receptor, the Emax fell in the range of 25 to 100%; the “M4 Activity” value is “xx (activity was measured to be between 2.0 μM and 5.0 μM)”.
In the case of `CCOC(=O)N1CCC(N2CCC3(CC[C@H](NC(=O)N(C)C)c4ccccc43)CC2)CC1` [compound 961], on M1 muscarinic receptor, the Emax lay in the range of 25 to 100% and the “M1 Activity” value was “xxx (activity was measured to be less than 2.0 μM)”. At M4 muscarinic receptor, the Emax lay in the range of 25 to 100% and the “M4 Activity” value is given as “xxx (activity was measured to be less than 2.0 μM)”.
With `CC(=O)NC1CCC2(CCN(CCC3CCN(C(=O)OCC(C)C)CC3)CC2)c2ccccc21` (stereo not drawn) [compound 962], on M1 muscarinic receptor, the Emax was below 25% and the “M1 Activity” value is listed as “x (activity was measured to be greater than 5.0 μM)”. In addition, on M4 muscarinic receptor, the Emax was below 25% and the “M4 Activity” value is given as “x (activity was measured to be greater than 5.0 μM)”.
Consider `CN(C)C(=O)N1CC2(CCN(C3CCN(c4ncnc5ccsc45)CC3)CC2)c2cc(F)ccc21` [compound 965], for which, on M1 muscarinic receptor, the Emax fell in the range of 25 to 100% and the “M1 Activity” value was “x (activity was measured to be greater than 5.0 μM)”. For the same compound, at M4 muscarinic receptor, the Emax was 25 to 100% and the “M4 Activity” value is reported as “xxx (activity was measured to be less than 2.0 μM)”.
With `CC(=O)NC1CCC2(CCN(CCC3CCN(C(=O)C(C)(C)C)CC3)CC2)c2ccccc21` (stereo not drawn) [compound 966], on M1 muscarinic receptor, the Emax fell in the range of 25 to 100% and the “M1 Activity” value was “xxx (activity was measured to be less than 2.0 μM)”. Moreover, on M4 muscarinic receptor, the Emax was below 25% and the “M4 Activity” value is “x (activity was measured to be greater than 5.0 μM)”.
As for `CCc1nccnc1N1CCC(N2CCC3(CC2)CN(C(=O)N(C)C)c2ccc(F)cc23)CC1` [compound 967], at M1 muscarinic receptor, the Emax lay within 25 to 100%; the “M1 Activity” value was “xx (activity was measured to be between 2.0 μM and 5.0 μM)”. Further, at M4 muscarinic receptor, the Emax fell in the range of 25 to 100%; the “M4 Activity” value was “xx (activity was measured to be between 2.0 μM and 5.0 μM)”.
For `CC(=O)N1CC2(CCN(CC3CCC(C)=CC3C)CC2)c2cc(F)ccc21` (stereo not drawn) [compound 968], on M1 muscarinic receptor, the Emax was below 25% and the “M1 Activity” value is reported as “x (activity was measured to be greater than 5.0 μM)”. On M4 muscarinic receptor, the Emax was below 25% and the “M4 Activity” value was “x (activity was measured to be greater than 5.0 μM)”.
Turning to `CC(=O)NC1CCC2(CCN(CCC3CCN(S(C)(=O)=O)CC3)CC2)c2ccccc21` (stereo not drawn) [compound 969], at M1 muscarinic receptor, the Emax lay within 25 to 100% and the “M1 Activity” value is listed as “xxx (activity was measured to be less than 2.0 μM)”. On M4 muscarinic receptor, the Emax was below 25% and the “M4 Activity” value is recorded as “x (activity was measured to be greater than 5.0 μM)”.
With `CC(=O)N1CC2(CCN(C3CC4CCC(C3)N4C(=O)O[C@@H]3CCOC3)CC2)c2ccccc21` (stereo partly drawn) [compound 970], at M1 muscarinic receptor, the maximal response (Emax) was 25 to 100% and the “M1 Activity” value was “xxx (activity was measured to be less than 2.0 μM)”. Moreover, on M4 muscarinic receptor, the Emax fell in the range of 25 to 100% and the “M4 Activity” value is “xxx (activity was measured to be less than 2.0 μM)”.
Regarding `CN(C)C(=O)N1CC2(CCN(C3CCN(C(=O)c4cccc(F)c4)CC3)CC2)c2cc(F)ccc21` [compound 972], at M1 muscarinic receptor, the maximal effect (Emax) lay in the range of 25 to 100%; the “M1 Activity” value was “xx (activity was measured to be between 2.0 μM and 5.0 μM)”. At M4 muscarinic receptor, the Emax is below 25% and the “M4 Activity” value is listed as “x (activity was measured to be greater than 5.0 μM)”.
Turning to `CC(=O)N1CC2(CCN(C3CCN(c4nncs4)CC3)CC2)c2ccccc21` [compound 973], at M1 muscarinic receptor, the Emax was in the range of 25 to 100% and the “M1 Activity” value is recorded as “x (activity was measured to be greater than 5.0 μM)”. In addition, on M4 muscarinic receptor, the Emax was below 25% and the “M4 Activity” value is recorded as “x (activity was measured to be greater than 5.0 μM)”.
